Assay results taken from patent publication US20080287478A1 (priority 2003, published 2008).
Structures can show the parent of a compound that is named as a salt. Where two headings read alike, the source gives them in different places.

Experiments:
Male SD/TAC rats = assay: animal or person; type: in vivo, rat; conditions: for response vs control in vivo at 3 µmol/kg / minimal effective dose / ED (max): Rattus norvegicus; for minimal effective dose: read-out: Lovest Dose at which increased diuresis is achieved nMol/kg. I.e. >1.5 SC; for ED (max): read-out: SC Dose at which max diuresis is achieved nMol/kg
mice = conditions: mouse, in vivo, iv
male NMRI mice = conditions: mouse, in vivo, iv; for dose at which the mice died after injection / time to death after injection: male, NMRI
in vivo = conditions: male, Sprague-Dawley, rat
[1] = rat, in vivo

## CC(C)[C@H]1CC[C@@H](N2CCC3(CC2)C(=O)N(CCCCCCCCCN2CN(c4ccccc4)C4(CCN([C@H]5CC[C@@H](C(C)C)CC5)CC4)C2=O)CN3c2ccccc2)CC1 [Compound 25, 1,9-bis-(cis-8-(4-isopropyl-cyclohexyl)-1-phenyl-1,3,8-triaza-spiro[4.5]decan-4-one-3-yl)-nonane]
Male SD/TAC rats; po, read-out: PO max effect.
  response vs control in vivo at 3 µmol/kg: 250%
Male SD/TAC rats; sc
  minimal effective dose: 0.01 µmol/kg
  ED (max): 1000 nmol/kg
Male SD/TAC rats; sc, read-out: SC max effect.
  response vs control in vivo at 3 µmol/kg: 250%
Male SD/TAC rats; rat, in vivo
  Lovest Dose at which increased diuresis is achieved nMol/kg. I.e. >1.5 IV: 10^−5 nMol/kg
Male SD/TAC rats; rat, in vivo, po
  Lovest Dose at which increased diuresis is achieved nMol/kg. I.e. >1.5 PO: 10 nmol/kg
  PO Dose at which max diuresis is achieved: 1000 nmol/kg

## CC(C)[C@H]1CC[C@@H](N2CCC3(CC2)C(=O)N(CCCNCCNCCNCCCNCCN)CN3c2ccccc2)CC1 [Compound 33, cis-8-(4-Isopropyl-cyclohexyl)-3-(4,7,10,14,17-pentaazaheptadecyl)-1-phenyl-1,3,8-triaza-spiro[4.5]decan-4-one]
Male SD/TAC rats; po, read-out: PO max effect.
  response vs control in vivo at 3 µmol/kg: 160%
Male SD/TAC rats; sc
  minimal effective dose: 0.0001 µmol/kg
  ED (max): 1000 nmol/kg
Male SD/TAC rats; sc, read-out: SC max effect.
  response vs control in vivo at 3 µmol/kg: 330%
Male SD/TAC rats; rat, in vivo, po
  Lovest Dose at which increased diuresis is achieved nMol/kg. I.e. >1.5 PO: 1000 nmol/kg
  PO Dose at which max diuresis is achieved: 1000 nmol/kg

## CC(C)[C@H]1CC[C@@H](N2CCC3(CC2)C(=O)N(CCCCCCNCCNCCCNCCNCCN)CN3c2ccccc2)CC1 [Compound 34, cis-8-(4-Isopropyl-cyclohexyl)-3-(7,10,14,17,20-pentaazaeicosanyl)-1-phenyl-1,3,8-triaza-spiro[4.5]decan-4-one]
Male SD/TAC rats; po, read-out: PO max effect.
  response vs control in vivo at 3 µmol/kg: 200%
Male SD/TAC rats; sc
  minimal effective dose: 0.01 µmol/kg
  ED (max): 100 nmol/kg
Male SD/TAC rats; sc, read-out: SC max effect.
  response vs control in vivo at 3 µmol/kg: 490%
Male SD/TAC rats; rat, in vivo
  Lovest Dose at which increased diuresis is achieved nMol/kg. I.e. >1.5 IV: 0.0001 nmol/kg
Male SD/TAC rats; rat, in vivo, po
  Lovest Dose at which increased diuresis is achieved nMol/kg. I.e. >1.5 PO: 0.1 nmol/kg
  PO Dose at which max diuresis is achieved nMol/kg: 0.1; 10 nMol/kg
mice
  CNS motility* (Minimal effective dose nmol/kg): 100 nmol/kg
  dose with statistical significant decrease in locomotor activity during the first 15 minutes: 1000 nmol/kg
  locomotor activity / activity count during the first 30 minutes versus vehicle: No statistical significant difference
Male NMRI mice
  dose at which the mice died after injection: 2000 nmol/kg
  time to death after injection: approximately 2 minutes
  CNS grid shock* (Minimal effective dose nmol/kg): 300 nmol/kg
  gridshock response versus vehicle: No statistical significant difference

## CC(C)[C@H]1CC[C@@H](N2CCC3(CC2)C(=O)N(CCCN2CCCNCCNCCCNCC2)CN3c2ccccc2)CC1 [Compound 36, cis-8-(4-Isopropyl-cyclohexyl)-1-phenyl-3-[3-(1,4,8,11-tetraaza-cyclotetradec-1-yl)-propyl]-1,3,8-triaza-spiro[4.5]decan-4-one]
Male SD/TAC rats; po, read-out: PO max effect.
  response vs control in vivo at 3 µmol/kg: 240%
Male SD/TAC rats; rat, in vivo
  Lovest Dose at which increased diuresis is achieved nMol/kg. I.e. >1.5 IV: 10 nmol/kg
Male SD/TAC rats; rat, in vivo, po
  Lovest Dose at which increased diuresis is achieved nMol/kg. I.e. >1.5 PO: 1000 nmol/kg
  PO Dose at which max diuresis is achieved: 1000 nmol/kg
mice
  CNS motility* (Minimal effective dose nmol/kg): 100 nmol/kg
Male NMRI mice
  dose at which the mice died after injection: 2000 nmol/kg
  time to death after injection: approximately 1
  CNS grid shock* (Minimal effective dose nmol/kg): 1000 nmol/kg
In vivo
  half-life: 2 h

## O=C(O)C(F)(F)F [TFA, Trifluoroacetic acid]
mice
  locomotor activity / activity count during the first 30 minutes versus vehicle: No statistical significant difference
Male NMRI mice
  gridshock response versus vehicle: No statistical significant difference

## cis and trans-3-(Methoxycarbonylmethyl-)-8-(4-isopropyl-cyclohexyl)-1-phenyl-1,3,8-triaza-spiro[4.5]decan-4-one [Compound 10]
Male SD/TAC rats; rat, in vivo, sc
  Lovest Dose at which increased diuresis is achieved nMol/kg. I.e. >1.5 SC: 1000 nmol/kg
  SC Dose at which max diuresis is achieved: 1000 nmol/kg
  SC max effect.: 1.9

## cis-(8-(4-Isopropyl-cyclohexyl)-1-phenyl-1,3,8-triaza-spiro[4.5]decan-4-one)-acetic acid [Compound 11]
Male SD/TAC rats; rat, in vivo
  Lovest Dose at which increased diuresis is achieved nMol/kg. I.e. >1.5 IV: 10 nmol/kg
Male SD/TAC rats; rat, in vivo, sc
  Lovest Dose at which increased diuresis is achieved nMol/kg. I.e. >1.5 SC: 1000 nmol/kg
  SC Dose at which max diuresis is achieved: 1000 nmol/kg
  SC max effect.: 2.0
mice
  CNS motility* (Minimal effective dose nmol/kg): >10000 nmol/kg
  locomotor activity / activity count during the first 30 minutes versus vehicle: No statistical significant difference
[1]
  oral availability (in words): orally available
Male NMRI mice
  gridshock response versus vehicle: No statistical significant difference
